Results from ChEMBL document CHEMBL1156471, “Targeting host cell furin proprotein convertases as a therapeutic strategy against bacterial toxins and viral pathogens” (J Biol Chem, 2007).

The molecules below were run against Furin (Homo sapiens, UniProt P09958).
Chain of Furin (P09958 whole entry): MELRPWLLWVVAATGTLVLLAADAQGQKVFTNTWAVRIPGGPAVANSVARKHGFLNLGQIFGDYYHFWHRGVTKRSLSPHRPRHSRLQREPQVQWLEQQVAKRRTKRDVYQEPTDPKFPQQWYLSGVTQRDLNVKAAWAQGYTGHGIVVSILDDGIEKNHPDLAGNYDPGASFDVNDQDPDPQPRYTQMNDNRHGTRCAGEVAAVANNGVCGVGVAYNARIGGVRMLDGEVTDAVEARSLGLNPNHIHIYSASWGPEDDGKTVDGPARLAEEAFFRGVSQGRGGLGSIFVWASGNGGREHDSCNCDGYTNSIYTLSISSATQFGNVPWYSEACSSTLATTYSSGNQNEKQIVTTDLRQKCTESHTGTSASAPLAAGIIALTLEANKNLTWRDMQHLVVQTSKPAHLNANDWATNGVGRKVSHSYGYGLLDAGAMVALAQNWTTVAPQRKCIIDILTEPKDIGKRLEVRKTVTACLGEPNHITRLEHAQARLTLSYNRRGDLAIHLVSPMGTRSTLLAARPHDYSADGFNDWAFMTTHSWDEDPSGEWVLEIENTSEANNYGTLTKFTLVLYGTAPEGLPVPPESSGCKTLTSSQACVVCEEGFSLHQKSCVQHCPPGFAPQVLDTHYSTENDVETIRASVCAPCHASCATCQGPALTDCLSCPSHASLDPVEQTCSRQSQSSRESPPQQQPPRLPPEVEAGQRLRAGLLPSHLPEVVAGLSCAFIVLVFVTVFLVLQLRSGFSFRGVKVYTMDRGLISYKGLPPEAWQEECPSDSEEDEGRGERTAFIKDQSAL

| Compound | Ki [nM] |
| --- | --- |
| CC[C@H](NC(=O)[C@H](CCCNC(=N)N)NC(=O)[C@H](CCC(N)=O)NC(=O)[C@@H]1CCCN1C(=O)[C@@H](N)[C@@H](C)O)C(=O)N[C@@H](CCCNC(=N)N)C(=O)N[C@@H](CCCNC(=N)N)C(=O)N[C@@H](CCCNC(=N)N)C(=O)N[C@@H](CCCCN)C(=O)N[C@@H](CCCCN)C(=O)N[C@@H](CCCNC(=N)N)C(=O)NCC(=O)O | > 100 |
| C[C@H](NC(=O)[C@H](CCCNC(=N)N)NC(=O)[C@H](CCC(N)=O)NC(=O)[C@@H]1CCCN1C(=O)[C@@H](N)[C@@H](C)O)C(=O)N[C@@H](CCCNC(=N)N)C(=O)N[C@@H](CCCNC(=N)N)C(=O)N[C@@H](CCCNC(=N)N)C(=O)N[C@@H](CCCCN)C(=O)N[C@@H](CCCCN)C(=O)N[C@@H](CCCNC(=N)N)C(=O)N[C@H](CCCNC(=N)N)C(=O)O | > 100 |
| C[C@@H](O)[C@H](N)C(=O)N1CCC[C@H]1C(=O)N[C@@H](CCCN=C(N)N)C(=O)N[C@@H](CCC(=O)O)C(=O)N[C@@H](CCCN=C(N)N)C(=O)N[C@@H](CCCN=C(N)N)C(=O)N[C@@H](CCCN=C(N)N)C(=O)N[C@@H](CCCCN)C(=O)N[C@@H](CCCCN)C(=O)N[C@@H](CCCNC(=N)N)C(=O)NCC(N)=O | > 100 |
| C[C@H](NC(=O)[C@H](CCCN=C(N)N)NC(=O)[C@H](CCC(N)=O)NC(=O)[C@@H]1CCCN1C(=O)[C@@H](N)[C@@H](C)O)C(=O)N[C@@H](CCCN=C(N)N)C(=O)N[C@@H](CCCN=C(N)N)C(=O)N[C@@H](CCCN=C(N)N)C(=O)N[C@@H](CCCCN)C(=O)N[C@@H](CCCCN)C(=O)N[C@@H](CCCN=C(N)N)C(=O)NCC(=O)O | > 100 |
| CSCC[C@H](NC(=O)[C@H](CCCN=C(N)N)NC(=O)[C@H](CCCCN)NC(=O)[C@H](CCCCN)NC(=O)[C@H](CCCN=C(N)N)NC(=O)[C@H](CCCN=C(N)N)NC(=O)[C@H](CCCN=C(N)N)NC(=O)[C@H](C)NC(=O)[C@H](CCCN=C(N)N)NC(=O)[C@@H]1CCCN1C(=O)[C@@H](N)[C@@H](C)O)C(N)=O | > 100 |
| C[C@H](NC(=O)[C@H](CCCN=C(N)N)NC(=O)[C@@H]1CCCN1C(=O)[C@@H](N)[C@@H](C)O)C(=O)N[C@@H](CCCN=C(N)N)C(=O)N[C@@H](CCCN=C(N)N)C(=O)N[C@@H](CCCN=C(N)N)C(=O)N[C@@H](CCCCN)C(=O)N[C@@H](CCCCN)C(=O)N[C@@H](CCCN=C(N)N)C(=O)N(C)CC(=O)O | > 100 |
| C[C@@H](O)[C@H](N)C(=O)N1CCC[C@H]1C(=O)N[C@@H](CCCN=C(N)N)C(=O)N[C@@H](CCCCN)C(=O)N[C@@H](CCCN=C(N)N)C(=O)N[C@@H](CCCN=C(N)N)C(=O)N[C@@H](CCCN=C(N)N)C(=O)N[C@@H](CCCCN)C(=O)N[C@@H](CCCCN)C(=O)N[C@@H](CCCN=C(N)N)C(=O)NCC(N)=O | > 100 |
| CC(C)C[C@H](NC(=O)[C@H](CCCNC(=N)N)NC(=O)[C@H](CCCCN)NC(=O)[C@H](CCCCN)NC(=O)[C@H](CCCNC(=N)N)NC(=O)[C@H](CCCNC(=N)N)NC(=O)[C@H](CCCNC(=N)N)NC(=O)[C@H](C)NC(=O)[C@H](CCCNC(=N)N)NC(=O)[C@@H]1CCCN1C(=O)[C@@H](N)[C@@H](C)O)C(N)=O | > 100 |
| C[C@@H](N)C(=O)N1CCC[C@H]1C(=O)N[C@@H](CCCNC(=N)N)C(=O)N[C@@H](CCC(=O)O)C(=O)N[C@@H](CCCNC(=N)N)C(=O)N[C@@H](CCCNC(=N)N)C(=O)N[C@@H](CCCNC(=N)N)C(=O)N[C@@H](CCCCN)C(=O)N[C@@H](CCCCN)C(=O)N[C@@H](CCCNC(=N)N)C(=O)NCC(N)=O | > 100 |
| C[C@H](NC(=O)[C@H](CCCNC(=N)N)NC(=O)[C@H](CCC(N)=O)NC(=O)[C@@H]1CCCN1C(=O)[C@@H](N)[C@@H](C)O)C(=O)N[C@@H](CCCNC(=N)N)C(=O)N[C@@H](CCCNC(=N)N)C(=O)N[C@@H](CCCNC(=N)N)C(=O)N[C@@H](CCCCN)C(=O)N[C@@H](CCCCN)C(=O)N[C@@H](CCCNC(=N)N)C(=O)N[C@@H](CCCCN)C(=O)O | > 100 |
| C[C@H](NC(=O)[C@H](CCCNC(=N)N)NC(=O)[C@@H]1CCCN1C(=O)[C@@H](N)[C@@H](C)O)C(=O)N[C@@H](CCCNC(=N)N)C(=O)N[C@@H](CCCNC(=N)N)C(=O)N[C@@H](CCCNC(=N)N)C(=O)N[C@@H](CCCCN)C(=O)N[C@@H](CCCCN)C(=O)N[C@@H](CCCNC(=N)N)C(=O)N[C@@H](CS)C(N)=O | > 100 |
| C[C@H](NC(=O)[C@H](C)NC(=O)[C@H](CCCN=C(N)N)NC(=O)[C@H](CCCN=C(N)N)NC(=O)[C@H](CCCN=C(N)N)NC(=O)[C@H](CCC(=O)O)NC(=O)[C@H](CCCN=C(N)N)NC(=O)[C@@H]1CCCN1C(=O)[C@@H](N)[C@@H](C)O)C(=O)N[C@@H](CCCN=C(N)N)C(=O)O | > 100 |
| C[C@@H](O)[C@H](N)C(=O)N1CCC[C@H]1C(=O)N[C@@H](CCCNC(=N)N)C(=O)N[C@@H](CCCNC(N)=O)C(=O)N[C@@H](CCCNC(=N)N)C(=O)N[C@@H](CCCNC(=N)N)C(=O)N[C@@H](CCCNC(=N)N)C(=O)N[C@@H](CCCCN)C(=O)N[C@@H](CCCCN)C(=O)N[C@@H](CCCNC(=N)N)C(=O)NCC(N)=O | > 100 |
| C[C@H](NC(=O)[C@H](CCCN=C(N)N)NC(=O)[C@@H]1CCCN1C(=O)[C@@H](N)[C@@H](C)O)C(=O)N[C@@H](CCCN=C(N)N)C(=O)N[C@@H](CCCN=C(N)N)C(=O)N[C@@H](CCCN=C(N)N)C(=O)N[C@@H](CCCCN)C(=O)N[C@@H](CCCCN)C(=O)N[C@@H](CCCN=C(N)N)C(=O)O | 138 |
| C[C@@H](O)[C@H](N)C(=O)N1CCC[C@H]1C(=O)N[C@@H](CCC(N)=O)C(=O)N[C@@H](CCCN=C(N)N)C(=O)N[C@@H](CC1CCCCC1)C(=O)N[C@@H](CCCN=C(N)N)C(=O)N[C@@H](CCCN=C(N)N)C(=O)N[C@@H](CCCN=C(N)N)C(=O)N[C@@H](CCCCN)C(=O)N[C@@H](CCCCN)C(=O)N[C@@H](CCCNC(=N)N)C(=O)NCC(=O)O | > 100 |
| C[C@@H](O)[C@H](N)C(=O)N1CCC[C@H]1C(=O)N[C@@H](CCCN=C(N)N)C(=O)N[C@H](CCCCN)C(=O)N[C@@H](CCCN=C(N)N)C(=O)N[C@@H](CCCN=C(N)N)C(=O)N[C@@H](CCCN=C(N)N)C(=O)N[C@@H](CCCCN)C(=O)N[C@@H](CCCCN)C(=O)N[C@@H](CCCN=C(N)N)C(=O)NCC(N)=O | > 100 |
| C[C@@H](O)[C@H](N)C(=O)N1CCC[C@H]1C(=O)N[C@@H](CCCNC(=N)N)C(=O)NCCC(=O)N[C@@H](CCCNC(=N)N)C(=O)N[C@@H](CCCNC(=N)N)C(=O)N[C@@H](CCCNC(=N)N)C(=O)N[C@@H](CCCCN)C(=O)N[C@@H](CCCCN)C(=O)N[C@@H](CCCNC(=N)N)C(=O)NCC(N)=O | > 100 |
| C[C@@H](O)[C@H](N)C(=O)N1CCC[C@H]1C(=O)N[C@@H](CCCN=C(N)N)C(=O)NC1(C(=O)N[C@@H](CCCN=C(N)N)C(=O)N[C@@H](CCCN=C(N)N)C(=O)N[C@@H](CCCN=C(N)N)C(=O)N[C@@H](CCCCN)C(=O)N[C@@H](CCCCN)C(=O)N[C@@H](CCCN=C(N)N)C(=O)NCC(N)=O)CCCC1 | > 100 |
| C[C@@H](O)[C@H](N)C(=O)N1CCC[C@H]1C(=O)N[C@@H](CCC(N)=O)C(=O)N[C@@H](CCCNC(=N)N)C(=O)NC1(C(=O)N[C@@H](CCCNC(=N)N)C(=O)N[C@@H](CCCNC(=N)N)C(=O)N[C@@H](CCCNC(=N)N)C(=O)N[C@@H](CCCCN)C(=O)N[C@@H](CCCCN)C(=O)NC2(C(=O)NCC(=O)O)CCCC2)CCCC1 | > 100 |
| C[C@H](O)[C@H](N)C(=O)N1CCC[C@H]1C(=O)N[C@@H](CCCNC(=N)N)C(=O)N[C@H](CCC(=O)O)C(=O)N[C@@H](CCCNC(=N)N)C(=O)N[C@@H](CCCNC(=N)N)C(=O)N[C@@H](CCCNC(=N)N)C(=O)N[C@@H](CCCCN)C(=O)N[C@@H](CCCCN)C(=O)N[C@@H](CCCNC(=N)N)C(=O)NCC(N)=O | > 100 |
| C[C@H](NC(=O)[C@H](CCCNC(=N)N)NC(=O)[C@H](CCC(N)=O)NC(=O)[C@@H]1CCCN1C(=O)[C@@H](N)[C@@H](C)O)C(=O)N[C@@H](CCCNC(=N)N)C(=O)N[C@@H](CCCNC(=N)N)C(=O)N[C@@H](CCCNC(=N)N)C(=O)N[C@@H](CCCCN)C(=O)N[C@@H](CCCCN)C(=O)N[C@@H](CCCNC(=N)N)C(=O)N[C@H](CCCCN)C(=O)O | > 100 |
| C[C@@H](O)[C@H](N)C(=O)N1CCC[C@H]1C(=O)N[C@@H](CCCNC(=N)N)C(=O)NCCCCCC(=O)N[C@@H](CCCNC(=N)N)C(=O)N[C@@H](CCCNC(=N)N)C(=O)N[C@@H](CCCNC(=N)N)C(=O)N[C@@H](CCCCN)C(=O)N[C@@H](CCCCN)C(=O)N[C@@H](CCCNC(=N)N)C(=O)NCC(N)=O | > 100 |
| C[C@H](NC(=O)[C@H](CCCN=C(N)N)NC(=O)[C@H](CCC(N)=O)NC(=O)[C@@H]1CCCN1C(=O)[C@@H](N)[C@@H](C)O)C(=O)N[C@@H](CCCN=C(N)N)C(=O)N[C@@H](CCCN=C(N)N)C(=O)N[C@@H](CCCN=C(N)N)C(=O)N[C@@H](CCCCN)C(=O)N[C@@H](CCCCN)C(=O)N[C@@H](CCCN=C(N)N)C(=O)N[C@@H](CCCN=C(N)N)C(=O)O | > 100 |
| CSC[C@H](NC(=O)[C@H](CCCNC(=N)N)NC(=O)[C@H](CCC(N)=O)NC(=O)[C@@H]1CCCN1C(=O)[C@@H](N)[C@@H](C)O)C(=O)N[C@@H](CCCNC(=N)N)C(=O)N[C@@H](CCCNC(=N)N)C(=O)N[C@@H](CCCNC(=N)N)C(=O)N[C@@H](CCCCN)C(=O)N[C@@H](CCCCN)C(=O)N[C@@H](CCCNC(=N)N)C(=O)NCC(=O)O | > 100 |
| CCCC[C@H](NC(=O)[C@H](CCCNC(=N)N)NC(=O)[C@H](CCC(N)=O)NC(=O)[C@@H]1CCCN1C(=O)[C@@H](N)[C@@H](C)O)C(=O)N[C@@H](CCCNC(=N)N)C(=O)N[C@@H](CCCNC(=N)N)C(=O)N[C@@H](CCCNC(=N)N)C(=O)N[C@@H](CCCCN)C(=O)N[C@@H](CCCCN)C(=O)N[C@@H](CCCNC(=N)N)C(=O)NCC(=O)O | > 100 |
| C[C@H](NC(=O)[C@H](C)NC(=O)[C@H](CCCN=C(N)N)NC(=O)[C@H](CCCN=C(N)N)NC(=O)[C@H](CCCN=C(N)N)NC(=O)[C@H](CCC(=O)O)NC(=O)[C@H](CCCN=C(N)N)NC(=O)[C@@H]1CCCN1C(=O)[C@@H](N)[C@@H](C)O)C(=O)N[C@@H](CCCN=C(N)N)C(=O)N(C)CC(=O)O | > 100 |
| C[C@H](NC(=O)[C@H](C)NC(=O)[C@H](CCCNC(=N)N)NC(=O)[C@H](CCCNC(=N)N)NC(=O)[C@H](CCCNC(=N)N)NC(=O)[C@H](CCC(=O)O)NC(=O)[C@H](CCCNC(=N)N)NC(=O)[C@@H]1CCCN1C(=O)[C@@H](N)[C@@H](C)O)C(=O)N[C@@H](CCCNC(=N)N)C(=O)NCC(=O)O | > 100 |
